Target: Complement factor D (Homo sapiens, UniProt P00746)
Assay: Human Factor D Assay: Human Factor D (purified from human serum, Complement Technology, Inc.) at 80 nM final concentration is incubated with test compound at various concentrations for 5 minutes at room temperature in 50 mM Tris, 1M NaCl, pH 7.5. A synthetic substrate Z-L-Lys-SBzl and DTNB (Ellman's reagent) are added to final concentrations of 100 μM each. Absorbance at 405 nm (A405) is recorded at 30 second intervals for 30 minutes using a microplate spectrophotometer. IC50 values are calculated by nonlinear regression of complement Factor D reaction rates as a function of test compound concentration.

Complement factor D, sequence (P00746 whole entry): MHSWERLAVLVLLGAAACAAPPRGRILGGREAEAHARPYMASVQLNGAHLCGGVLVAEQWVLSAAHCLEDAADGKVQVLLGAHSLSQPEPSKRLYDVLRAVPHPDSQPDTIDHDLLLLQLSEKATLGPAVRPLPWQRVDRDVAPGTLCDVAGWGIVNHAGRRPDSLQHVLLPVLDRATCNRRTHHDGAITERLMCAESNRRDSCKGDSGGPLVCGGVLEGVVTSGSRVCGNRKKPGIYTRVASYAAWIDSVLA

CC(=O)c1nn(CC(=O)N2C[C@H](F)C[C@H]2C(=O)Nc2cccc(Br)n2)c2ccc(-c3cnc(S(C)(=O)=NC(=O)OC(C)(C)C)nc3)cc12 (stereo partly specified)
IC50: < 1000 nM

Source: ChEMBL document CHEMBL5728462, “Disubstituted compounds for treatment of medical disorders” (2021)
